Data: patent US20210254056A1, “IDENTIFICATION AND TARGETED MODULATION OF GENE SIGNALING NETWORKS” (CAMP4 THERAPEUTICS CORPORATION, priority 2017, published 2021)
Read-outs that look alike come from different tables or passages of the source.

Tested on: hepatocytes
Assay: RNA-seq of hepatocytes treated with Phase III failure compounds
Conditions: for significant modulation of expression of disease genes: q≤0.05, genes in the value or listed in the block; for significant modulation of expression of any of the genes analyzed: p≤0.05
Procedure: RNA-seq was performed to determine the effects of the compounds on hepatocytes.
Significance was determined by the criteria of FPKM≥0.5, a log 2(fold-change)≥1, and a […].

COc1cc2c(Oc3ccc4[nH]c(C)cc4c3F)ncnc2cc1OCCCN1CCCC1 [Cediranib]
RNA-seq results, CYP2B6 expression: −0.46 | RNA-seq results, CYP2C19 expression: −0.80 | RNA-seq results, CYP2D6 expression: −0.12 | RNA-seq results, CYP3A4 expression: −0.75 | RNA-seq results, CYP7B1 expression: −0.93 | RNA-seq results, CYP39A1 expression: −0.61 | RNA-seq results: CYP2B6 expression: 0.41 | RNA-seq results: CYP2C19 expression: −1 | RNA-seq results: CYP2D6 expression: 0.79 | RNA-seq results: CYP3A4 expression: 1.58 | RNA-seq results: CYP7B1 expression: −0.02 | RNA-seq results: CYP39A1 expression: −0.24 | significant modulation of expression of disease genes (RNA-seq, hepatocytes): significantly (q≤0.05) modulate expression | effect on disease gene expression (RNA-seq, hepatocytes): effect on expression of too many disease genes | genes down-regulated by the compound (RNA-seq, hepatocytes, gene named in the value): down-regulate Factor V levels | RNA-seq results: A1BG expression (gene A1BG, hepatocytes): 0.15 | RNA-seq results: AGTR1 expression (gene AGTR1, hepatocytes): −0.32 | RNA-seq results: AGXT expression (gene AGXT, hepatocytes): −0.23 | RNA-seq results: AHI1 expression (gene AHI1, hepatocytes): −0.17 | RNA-seq results: AMPD3 expression (gene AMPD3, hepatocytes): −0.52 | RNA-seq results: AMT expression (gene AMT, hepatocytes): −0.23 | RNA-seq results: ANGPTL3 expression (gene ANGPTL3, hepatocytes): −1.40 | RNA-seq results: ANKS4B expression (gene ANKS4B, hepatocytes): −0.31 | RNA-seq results: ANKS6 expression (gene ANKS6, hepatocytes): 0.09 | RNA-seq results: ANPEP expression (gene ANPEP, hepatocytes): −0.85 | RNA-seq results: AOC2 expression (gene AOC2, hepatocytes): −0.47 | RNA-seq results: APOA2 expression (gene APOA2, hepatocytes): 0.16 | RNA-seq results: APOA5 expression (gene APOA5, hepatocytes): −0.08 | RNA-seq results: APOB expression (gene APOB, hepatocytes): −0.99 | RNA-seq results: COG5 expression (gene COG5, hepatocytes): −0.45 | RNA-seq results: COG6 expression (gene COG6, hepatocytes): −0.46 | RNA-seq results: COL1A1 expression (gene COL1A1, hepatocytes): −0.72 | RNA-seq results: COX6A1 expression (gene COX6A1, hepatocytes): 0.16 | RNA-seq results: CP expression (gene CP, hepatocytes): 0.53 | RNA-seq results: CPS1 expression (gene CPS1, hepatocytes): −0.28 | RNA-seq results: CPT1A expression (gene CPT1A, hepatocytes): 0.16 | RNA-seq results: CPT2 expression (gene CPT2, hepatocytes): 1.26 | RNA-seq results: CROT expression (gene CROT, hepatocytes): 0.55 | RNA-seq results: CSPP1 expression (gene CSPP1, hepatocytes): −0.7 | RNA-seq results: CTC1 expression (gene CTC1, hepatocytes): −0.9 | RNA-seq results: CTDSP2 expression (gene CTDSP2, hepatocytes): −0.18 | RNA-seq results: CTH expression (gene CTH, hepatocytes): 0.66 | RNA-seq results: CTNS expression (gene CTNS, hepatocytes): −1.18 | RNA-seq results: CTSF expression (gene CTSF, hepatocytes): 0.6 | RNA-seq results: CTSK expression (gene CTSK, hepatocytes): 0.02 | RNA-seq results: CYB5A expression (gene CYB5A, hepatocytes): −0.16 | RNA-seq results: CYB5R3 expression (gene CYB5R3, hepatocytes): 0.14 | RNA-seq results: CYP27A1 expression (gene CYP27A1, hepatocytes): 0.51 | RNA-seq results: DAO expression (gene DAO, hepatocytes): 0.23 | RNA-seq results: DBT expression (gene DBT, hepatocytes): −0.33 | RNA-seq results: DCDC2 expression (gene DCDC2, hepatocytes): −1.25 | RNA-seq results: DCXR expression (gene DCXR, hepatocytes): 0.96 | RNA-seq results: FABP1 expression (gene FABP1, hepatocytes): 0.4 | RNA-seq results: FADD expression (gene FADD, hepatocytes): −0.23 | RNA-seq results: FAM111A expression (gene FAM111A, hepatocytes): −0.68 | RNA-seq results: FAM111B expression (gene FAM111B, hepatocytes): −0.13 | RNA-seq results: FAN1 expression (gene FAN1, hepatocytes): −1.14 | RNA-seq results: FARS2 expression (gene FARS2, hepatocytes): −0.84 | RNA-seq results: FASLG expression (gene FASLG, hepatocytes): −1.48 | RNA-seq results: FGA expression (gene FGA, hepatocytes): 0.87 | RNA-seq results: FGD1 expression (gene FGD1, hepatocytes): −0.22 | RNA-seq results: FGFR2 expression (gene FGFR2, hepatocytes): −0.16 | RNA-seq results: FIG4 expression (gene FIG4, hepatocytes): −0.45 | RNA-seq results: FIS1 expression (gene FIS1, hepatocytes): −0.27 | RNA-seq results: FTCD expression (gene FTCD, hepatocytes): −0.68 | RNA-seq results: FTH1 expression (gene FTH1, hepatocytes): −0.17 | RNA-seq results: FUCA1 expression (gene FUCA1, hepatocytes): 1.44 | RNA-seq results: FXN expression (gene FXN, hepatocytes): −1.56 | RNA-seq results: G6PC3 expression (gene G6PC3, hepatocytes): −0.89 | RNA-seq results: G6PC expression (gene G6PC, hepatocytes): 0.32 | RNA-seq results: G6PD expression (gene G6PD, hepatocytes): 1.51 | RNA-seq results: GALK1 expression (gene GALK1, hepatocytes): −0.27 | RNA-seq results: GALK2 expression (gene GALK2, hepatocytes): 0.04 | RNA-seq results: GALT expression (gene GALT, hepatocytes): −0.02 | RNA-seq results: GATA6 expression (gene GATA6, hepatocytes): −0.1 | RNA-seq results: GATM expression (gene GATM, hepatocytes): −0.66 | RNA-seq results: GBA expression (gene GBA, hepatocytes): −0.06 | RNA-seq results: GBE1 expression (gene GBE1, hepatocytes): −0.62 | RNA-seq results: GCH1 expression (gene GCH1, hepatocytes): 1.49 | RNA-seq results: GCKR expression (gene GCKR, hepatocytes): −1.15 | RNA-seq results: GCLC expression (gene GCLC, hepatocytes): 0.3 | RNA-seq results: GOSH expression (gene GOSH, hepatocytes): −0.39 | RNA-seq results: RRM2B (gene RRM2B, hepatocytes): −0.75 | RNA-seq results: RSAD1 (gene RSAD1, hepatocytes): 0.13 | RNA-seq results: SAMHD1 (gene SAMHD1, hepatocytes): −1.05 | RNA-seq results: SC5D (gene SC5D, hepatocytes): 0.51 | RNA-seq results: SCARB1 (gene SCARB1, hepatocytes): −0.30 | RNA-seq results: SCN9A (gene SCN9A, hepatocytes): −0.39 | RNA-seq results: SDCCAG8 (gene SDCCAG8, hepatocytes): −0.30 | RNA-seq results: SEPN1 (gene SEPN1, hepatocytes): −0.85 | RNA-seq results: SERAC1 (gene SERAC1, hepatocytes): −0.14 | RNA-seq results: SERPINA1 (gene SERPINA1, hepatocytes): −0.19 | RNA-seq results: SERPING1 (gene SERPING1, hepatocytes): −0.29 | RNA-seq results: SERPINI1 (gene SERPINI1, hepatocytes): −0.73 | RNA-seq results: SETBP1 (gene SETBP1, hepatocytes): −0.30 | RNA-seq results: SFXN4 (gene SFXN4, hepatocytes): −0.01 | RNA-seq results: SLC10A1 (gene SLC10A1, hepatocytes): −0.88 | RNA-seq results: SLC10A3 (gene SLC10A3, hepatocytes): −0.50 | RNA-seq results: SLC10A5 (gene SLC10A5, hepatocytes): −0.90 | RNA-seq results: SLC10A7 (gene SLC10A7, hepatocytes): −0.52 | RNA-seq results: SLC11A2 (gene SLC11A2, hepatocytes): −0.59 | RNA-seq results: SLC19A1 (gene SLC19A1, hepatocytes): −0.45 | RNA-seq results: SLC19A2 (gene SLC19A2, hepatocytes): −0.03 | RNA-seq results: SLC19A3 (gene SLC19A3, hepatocytes): −0.68 | RNA-seq results: SLC22A1 (gene SLC22A1, hepatocytes): −0.13 | RNA-seq results: SLC22A5 (gene SLC22A5, hepatocytes): 0.06 | RNA-seq results: SLC25A1 (gene SLC25A1, hepatocytes): −0.09 | RNA-seq results: SLC25A10 (gene SLC25A10, hepatocytes): −0.40 | RNA-seq results: SLC25A12 (gene SLC25A12, hepatocytes): −0.41 | RNA-seq results: SLC25A13 (gene SLC25A13, hepatocytes): −0.29 | RNA-seq results: SLC25A15 (gene SLC25A15, hepatocytes): −0.47 | RNA-seq results: SLC25A19 (gene SLC25A19, hepatocytes): 0.26 | RNA-seq results: SLC25A20 (gene SLC25A20, hepatocytes): −0.32 | RNA-seq results: SLC25A29 (gene SLC25A29, hepatocytes): −0.11 | RNA-seq results: SLC25A32 (gene SLC25A32, hepatocytes): −0.13

C=CCNC1=C2C[C@@H](C)C[C@H](OC)[C@H](O)[C@@H](C)/C=C(\C)[C@H](OC(N)=O)[C@@H](OC)/C=C\C=C(/C)C(=O)NC(=CC1=O)C2=O [Compound 17-AAG]
Number (#) of genes having significantly changed expression: 1558

Cc1ccc2c(=O)c3cccc(CC(=O)O)c3oc2c1C [DMXAA]
significant changes in gene expression (RNA-seq of Table 36, FPKM≥0.5, log 2(fold-change)≥1, q-value≤0.05): not observed to cause any significant changes in gene expression | significant modulation of expression of any of the genes analyzed (RNA-seq, hepatocytes): not observed to significantly modulate expression | effect on disease gene expression (RNA-seq, hepatocytes): no effect on any disease gene

COc1cc2ncnc(Nc3ccc(F)c(Cl)c3)c2cc1NC(=O)/C=C/CN1CCCCC1 [Dacomitinib (PF299804, PF299), Dacomitinib]
significant modulation of expression of any of the genes analyzed (RNA-seq, hepatocytes): not observed to significantly modulate expression

CCC(CC)CC1(C(=O)Nc2ccccc2SC(=O)C(C)C)CCCCC1 [Dalcetrapib]
Number (#) of genes having significantly changed expression (RNA-seq, Phase III failure compounds, hepatocytes, significance: FPKM≥0.5, log 2(fold-change)≥1, q-value≥0.05 (so in the source)): 43 | significant modulation of expression of disease genes (RNA-seq, hepatocytes): significantly (q≤0.05) modulate expression of CYP3A4 and GOSH | effect on disease gene expression (RNA-seq, hepatocytes): no effect on any disease gene
